Experimental data published in patent publication US9982265B2, “Inhibition of Bruton's tyrosine kinase (Btk) in the lung to treat severe lung inflammation and lung injury” (BOARD OF REGENTS, THE UNIVERSITY OF TEXAS SYSTEM, priority 2014, dated 2018).

Legend:
[1] = test system: ApoE−/− mice fed Western Diet and exposed to SHS; assay: Second hand smoke-induced emphysema/COPD model, PicroSirius Red and Hart's Elastin lung staining; type: in vivo; conditions: i.v. twice a week for 4 weeks, FIG. 18, 19
Description: Second Hand Smoke (SHS)-Induced COPD: Chronic exposure of mice to SHS induces abnormal pulmonary inflammation, airway remodeling and airspace enlargement due to destruction of alveolar walls which are characteristic of COPD (Pappas et al., supra). The present studies used both wild-type (WT) mice exposed to SHS and apolipoprotein E-(ApoE^−/−)-genetically deficient mice to study comorbidities of COPD. The targeted deletion of the apoE gene leads to severe hypercholesterolemia and spontaneous atherosclerosis. Lesions of ApoE^−/− mice resemble their human counterparts and develop over time from initial fatty streaks to complex lesions. (A high-fat, high-cholesterol diet can strongly accelerate the process.) Exposure of ApoE^−/− mice to SHS triggers characteristic decline of lung function that is seen in patients with COPD (Arunachalam, G. et al., supra). ApoE^−/− mice were fed a regular diet (control) and a high fat/cholesterol (1%) diet to shorten the time required for the development of atherosclerosis.
WT and ApoE^−/− diet groups were divided into equal subgroups: control and SHS. SHS groups were exposed to cigarette smoke for 4 h per day, 5 days a week, for up to 20 weeks. A Teague TE-10 microprocessor-controlled smoking machine was used to produce side stream mixed with a smaller amount of main stream smoke. […] TSP values were measured twice a week or as necessary. […]

[2] = test system: mice with anti-KC:KC IC ALI; assay: anti-KC:KC IC model of ALI, Lung Injury Score; type: in vivo; conditions: Table 4; mice immunized with KC then given KC; score 0 to 2; means ± SD, 3 animals per group
Description: Anti-KC:KC immune complexes were prepared according to the protocol routinely used in our laboratory (28). Some mice received Btk specific siRNA intranasally. In other experiments the animals were treated i.n. with siRNA specific for Btk (see SEQ ID NOs:18-25) or MMP-9 (Invitrogen), both conjugated (T3™-MAX Conjugation Kit (Bioo Scientific Corporation, Austin, Tex.) to F(ab′)2 fragments of anti-mouse neutrophil antibody Ly-6G1A8). F(ab′)2 fragments alone or conjugated to control siRNA (SEQ ID NO's 26 and 27) (Invitrogen) served as controls of the treatment. Two or fourteen hours after i.n. administration of either immune complexes or saline, the animals were euthanized and samples collected for further evaluation. To study role of neutrophil FcγRIII receptors neutrophils were first depleted by i.p. injection of vinblastine (31) followed by adoptive transfer of cells deficient in FcγRIII receptors prepared as described below. […] Lung dysfunction was assessed by analysis of pulmonary histopathology.
Pulmonary Histopathology: Lungs were fixed in ExCellPlus (AMTS, Lodi, Calif.), embedded in paraffin, and sectioned at 5 μm. […] The images of stained sections were evaluated for the presence of alveolar exudate, infiltration of inflammatory cells, and interstitial thickening. Lung Injury Score (LIS) was assessed as described earlier (28). Most images were assessed at magnification of over 400×. […] At the minimum twenty sections from each group of mice were evaluated and 4 investigators participated in the analysis of 50 or more fields per group. According to recommendation of “An Official American Thoracic Society Workshop Report: Features and Measurements of Experimental Acute Lung Injury in Animals” (Am J Respir Cell Mol Biol 44 725-738, 2011) more than 20 high power fields were independently scored (as described above) and at least 50% of each field was occupied by lung alveoli. […]

SMILES	effect on symptoms of emphysema/COPD [1]	Lung Injury Score: Edema fluid [2]	Lung Injury Score: Inflammatory infiltration [2]	Lung Injury Score: Thickening of alveolar septa [2]
C=CC(=O)N1CCC[C@@H](n2nc(-c3ccc(Oc4ccccc4)cc3)c3c(N)ncnc32)C1 [PCI-32765, 1-[(3R)-3-[4-amino-3-(4-phenoxyphenyl)-pyrazolo[3,4-d]pyrimidin-1-yl]piperidin-1-yl]prop-2-en-1-one]	dramatic protective effect	–	–	–
CC[C@]1(O)C[C@@H]2CN(CCc3c([nH]c4ccccc34)[C@@](C(=O)OC)(c3cc4c(cc3OC)N(C)[C@H]3[C@@](O)(C(=O)OC)[C@H](OC(C)=O)[C@]5(CC)C=CCN6CC[C@]43[C@@H]65)C2)C1 [vinblastine]	–	0.033 ± 0.029	0.167 ± 0.029	0.133 ± 0.153
